≈ marks a conversion by molar mass, not a printed value.
Columns and labels:
[1] = system: Staphylococcus aureus 209P JC-1; test: Antimicrobial activity, MIC on 1/2 Mueller-Hinton agar; format: cell-based; details: 37° C., 24 hours
Method: (§1) Antimicrobial activities: (a) Test Method One loopful of an overnight culture (10^8 cells/ml) of each test bacteria in bouillon was streaked on 1/2 Mueller-Hinton agar containing the graded concentration of the FR-900493 substance and the minimal inbibitory concentration (MIC) was determined after incubation at 37° C. for 24 hours.

[2] = system: Bacillus subtilis ATCC-6633; test: as above; format: cell-based; details: 37° C., 24 hours
Method: as §1

[3] = system: Staphylococcus aureus 1601-6; test: as above; format: cell-based; details: 37° C., 24 hours
Method: as §1

Acute toxicity in mice = format: in vivo; details: intravenous; ddY mice, 4 weeks age, male
Method: The median lethal dose (LD50) of the FR-900493 substance in mice (ddY, 4 weeks age, male) by intravenous administration was >500 mg/kg.

[4] = system: Staphylococcus aureus 1601-47; test: Protective efficacy in experimental infections in mice; format: in vivo, ddY mouse (infected with Staphylococcus aureus 1601-47); details: 30 mg/kg subcutaneous, one hour after intraperitoneal infection with 3×10^6 cells; male ddY mice 5 weeks; observed 2 days
Method: Protective efficacy in experimental infections in mice: The in vivo activity of the FR-900493 substance against experimental infections due to Staphylococcus aureus 1601-47 was examined. One hour after the intraperitoneal injection of 3×10^6 cell of the test strain to each ddY mouse (male, 5 weeks age), the solution of the FR-900493 substance was administered subcutaneously.

## CN(CCCN)[C@H](C(=O)O)[C@H](O[C@@H]1O[C@H](CN)[C@@H](O)[C@H]1O)[C@H]1O[C@@H](n2ccc(=O)[nH]c2=O)[C@H](O)[C@@H]1O [FR-900493 substance]
[1]
  minimal inhibitory concentration (MIC): 3.13 µg/mL (≈ 6.02 µM)
[2]
  minimal inhibitory concentration (MIC): 3.13 µg/mL (≈ 6.02 µM)
[3]
  minimal inhibitory concentration (MIC): 6.25 µg/mL (≈ 12 µM)
Acute toxicity in mice
  median lethal dose (LD50): > 500 mg/kg
[4]
  Survival: 100%

Reference: patent publication US4950605A, “FR-900493 substance, a process for its production and a pharmaceutical composition containing the same” (Fujisawa Pharmaceutical Co., Ltd., priority 1988, dated 1990)
